{
  "source": "patent US20210220355A1",
  "about": "“ANTITUMOR AGENT FOR ACUTE MYELOID LEUKEMIA” (FUJIFILM Corporation, priority 2018, published 2021)",
  "key": {"[1]": {"tested_on": "FLT3-ITD+D698N-expressing 32D cell", "experiment": "inhibitory effect on proliferation of mutant FLT3-expressing 32D cell (intracellular ATP level)", "format": "cell-based", "conditions": "for IC50: 32D, 72 h, Mutation type FLT3-ITD + D698N, day 3, ATP level, read-out: Effect determination (IC50 value class), proliferation", "experimental": "(§1) 32D cell line expressing FLT3 gene mutations (FLT3-ITD+D698N, +N676T) found according to the random mutagenesis analysis method was cultured for a predetermined period of time (setting: 37° C. and 5% CO2, steam saturated), and then the cells were plated on a 384-well plate at a cell concentration of 299 cells/well. The random mutagenesis analysis method was carried out according to the following reference document.\n(§2) Each of the test substances was dissolved in dimethyl sulfoxide (DMSO) to prepare a DMSO solution containing 20 mmol/L of the test substance. After serially diluting with DMSO and further diluting with a medium containing 10% serum, each of the test substance solutions having a concentration 10 times the final treatment concentration was prepared. […] In addition, a group (a positive control group) in which only DMSO containing no test substance was added to a well in which cells were plated and a group (a negative control group) in which only DMSO containing no test substance was added to a well in which only the medium was added were prepared. On day 3 after adding the test substance solution, the intracellular ATP level was measured with “Cell” ATP Assay reagent Ver. 2 (manufactured by TOYO B-Net Co., Ltd.) to evaluate cell viability.\n(§3) The suppression rate was determined by assuming that the amount of luminescence signal in the negative control group corresponded to the suppression of cell viability by 100% and the amount of luminescence signal in the positive control group corresponded to the suppression of cell viability by 0%. […] 3 (manufactured by ITOCHU Techno-Solutions Corporation)."}, "[2]": {"tested_on": "FLT3-ITD+N676T-expressing 32D cell", "experiment": "inhibitory effect on proliferation of mutant FLT3-expressing 32D cell (intracellular ATP level)", "format": "cell-based", "conditions": "for IC50: 32D, 72 h, Mutation type FLT3-ITD + N676T, day 3, ATP level, read-out: Effect determination (IC50 value class), proliferation", "experimental": "as §1, §2, §3"}, "[3]": {"tested_on": "FLT3-ITD-expressing 32D cell", "experiment": "inhibitory effect on proliferation of mutant FLT3-expressing 32D cell (intracellular ATP level)", "format": "cell-based", "conditions": "72 h, Mutation type FLT3-ITD, day 3, ATP level, read-out: Effect determination (IC50 value class), proliferation", "experimental": "as §1, §2, §3"}, "FLT3 phosphorylation": {"tested_on": "FLT3 phosphorylation", "experiment": "plasma inhibitory activity (PIA) test on patient plasma samples", "format": "cell-based, human", "experimental": "For 7 patients (patients 1 to 7) who were repeatedly administered with 10 mg of Compound A1 one time a day or 20 mg one time a day in a clinical test involving patients with acute myeloid leukemia, in-plasma concentrations of Compound A1 were measured before administration and after 4 hours after the administration on day 1, day 8, day 15, and day 22 of the first cycle (one cycle is 28 days) and on day 1 of the second cycle, and on the end day of the administration of Compound A1. In addition, a plasma inhibitory activity (PIA) test (Blood, 2006, Vol. 108, p 3477 to 3483) was carried out using plasma samples from the same patients at the same time points. A graph showing a correlation between the in-plasma concentrations and the PIA test results is shown FIG. 1. In FIG. 1, open circles, open rectangles, open triangles, filled circles, filled triangles, filled rectangles, and cross symbols indicate the results of patients 1 to 7, respectively."}, "[4]": {"tested_on": "patients with acute myeloid leukemia", "experiment": "clinical test, repeated QD administration to patients with acute myeloid leukemia (side effects)", "format": "in vivo, human", "conditions": "AML patients, 10 mg or 20 mg one time a day"}, "acute myeloid leukemia": {"tested_on": "acute myeloid leukemia", "experiment": "BID administration test in a patient with acute myeloid leukemia (bone marrow examination)", "format": "in vivo, human", "conditions": "one AML patient, 75 mg BID before a meal, day 29 of administration; 55% before administration", "experimental": "A patient with acute myeloid leukemia is subjected to the BID administration of Compound A of 25 to 225 mg per administration before having a meal two times a day. A preferred effect (for example, a decrease in the proportion of blast cells in the bone marrow, or a curing effect equal to or higher than PR) is confirmed. The specific doses per administration are 50 mg, 75 mg, 100 mg, or 150 mg. Patients have received chemotherapy with cytarabine, daunorubicin, idarubicin, and the like as preliminary curing, and some patients have not reached CR, CRi, CRp, or PR by preliminary curing. The curing effect is determined by the following criteria. The bone marrow puncture sample is evaluated and determined according to the following criteria. Complete Response (CR): a state in which […], and the neutrophil count and the platelet count are respectively 1,000 counts/μL or more and 100,000 counts/μL or more. Complete Response with incomplete platelet recovery ([…]): a state in which myeloblasts are 5% or less and the neutrophil count is 1,000 counts/μL or more, but the platelet count is 100,000 counts/μL or less. Complete Response with incomplete hematological recovery (CRi): a state in which myeloblasts are 5% or less and there is no blood transfusion dependency, but the neutrophil count is 1,000 counts/μL or less. […]"}},
  "data": [
    {"compound": "CCc1nc(C(N)=O)c(Nc2ccc(N3CCC(N4CCN(C)CC4)CC3)c(OC)c2)nc1NC1CCOCC1", "note": "[Gilteritinib, 6-ethyl-3-[3-methoxy-4-[4-(4-methylpiperazin-1-yl)piperidin-1-yl]anilino]-5-(oxan-4-ylamino) pyrazine-2-carboxamide, reference compound]", "values": [
      {"measurement": "IC50", "setting": "[1]", "value": "10 to 50", "unit": "nM"},
      {"measurement": "IC50", "setting": "[2]", "value": "5 to 10", "unit": "nM"},
      {"measurement": "IC50", "setting": "[3]", "value": "1 to 5", "unit": "nM"}
    ]},
    {"compound": "CCCNc1nc(Nc2ccc(C#N)cc2)ncc1C#CCCCNC(=O)[C@H](C)N(C)C(=O)/C=C/CN(C)C", "note": "[Compound A1, (S,E)-N-(1-((5-(2-((4-cyanophenyl)amino)-4-(propylamino)pyrimidin-5-yl)-4-pentyn-1-yl)amino)-1-oxopropan-2-yl)-4-(dimethylamino)-N-methyl-2-butenamide]", "values": [
      {"measurement": "in-plasma concentration at which the phosphorylation inhibition rate reaches 100%", "setting": "FLT3 phosphorylation; based on the regression line of FIG. 1, 7 AML patients given 10 mg or 20 mg one time a day", "value": "exceeds 30 ng/mL"},
      {"measurement": "in-plasma concentration required to exhibit a remarkable FLT3 phosphorylation inhibition rate", "setting": "FLT3 phosphorylation; concluded from PIA test results of FIG. 1", "value": "≥ 40", "unit": "ng/mL"},
      {"measurement": "serious side effects", "setting": "[4]", "value": "No serious side effects were observed"},
      {"measurement": "proportion of blast cells in the bone marrow", "setting": "acute myeloid leukemia", "value": 18, "unit": "%"},
      {"measurement": "IC50", "setting": "[1]", "value": "0.5 to 1", "unit": "nM"},
      {"measurement": "inhibitory effect on proliferation, in words", "setting": "[1]; FLT3-ITD+D698N-expressing 32D cell, compared with FLT3-ITD-expressing 32D cell", "value": "strong inhibitory effect"},
      {"measurement": "IC50", "setting": "[2]", "value": "0.5 to 1", "unit": "nM"},
      {"measurement": "inhibitory effect on proliferation, in words", "setting": "[2]; FLT3-ITD+N676T-expressing 32D cell", "value": "strong inhibitory effect"},
      {"measurement": "IC50", "setting": "[3]", "value": "0.1 to 0.5", "unit": "nM"}
    ]}
  ]
}
